Patent publication US4639450A, “Polyprenylcarboxylic acid morpholides and pharmaceutical compositions” (Eisai Co., Ltd., priority 1979, dated 1987)

Key:
[1] = test system: rats of the Wistar series; conditions: rat, in vivo, po, 4000 mg/kg
Procedure: The compounds C, D, I and M were separately suspended in 5% aqueous solutions of gum arabic and the test composition were orally administered to rats of the Wistar series at a dose of 4000 mg/Kg.

[2] = test system: liver dysfunction (hepatitis) induced by D-galactosamine; experiment: Experiment II: effect on the liver dysfunction (hepatitis) induced by D-galactosamine, oral administration; type: in vivo, Rats of the SD series; conditions: Tables 3 and 4, 400 mg/Kg each time, D-galactosamine hydrochloride 200 mg/Kg hypodermically; for GPT Value: normal 34.8 ± 1.9, control 395.7 ± 49.3; for Alkali Phosphatase Value: normal 49.3 ± 4.4, control 67.4 ± 2.9; for GOT Value: normal 129.4 ± 12.6, control 573.7 ± 59.1
Procedure: (§1) Rats of the SD series having a body weight of about 250 g were used as test animals. D-Galactosamine hydrochloride (250 mg/Kg each time) and the test compound (50 mg/Kg each time) were administered into the abdominal cavity according to the schedule described below. After termination of the experiment, blood was collected from the test animals, and the GOT value, GPT value and alkali phosphatase value, which are indicators of the degree of the liver dysfunction, were measured.
(§2) The test compound was suspended in a 5% aqueous solution of gum arabic and was administered in the form of the suspension. D-Galactosamine hydrochloride was dissolved in distilled water, the pH value of the solution was adjusted to 7 by potassium hydroxide and the resulting solution was administered. The test compound was administered to a group consisting of 9 rats, and in place of the test compound, a 5% aqueous solution of gum arabic free of the test compound was administered to a control group consisting of 14 rats. Neither the test compound nor D-galactosamine hydrochloride was administered to a normal group consisting of 9 rats.
The effect on the liver dysfunction (hepatitis) induced by D-galactosamine by oral administration was examined.
D-galactosamine hydrochloride (200 mg/Kg each time) was hypodermically administered, and the test compound (400 mg/Kg each time) was orally administered. The test compound-administered group consisted of 9 rats, the control group consisted of 14 rats, and the normal group consisted of 8 rats. The administration schedule was as follows.
(§3) Administration Schedule: [formula]
Other test conditions were the same as in Experiment I.

[3] = test system: liver dysfunction (hepatitis) induced by D-galactosamine; experiment: Experiment I: effect on the liver dysfunction (hepatitis) induced by D-galactosamine, test compound administered into the abdominal cavity; type: in vivo, Rats of the SD series; conditions: D-galactosamine hydrochloride 250 mg/Kg
Procedure: The effect on the liver dysfunction (hepatitis) induced by D-galactosamine by administration into the abdominal cavity was examined.
as §1, §2, §3

[4] = Table 2, 50 mg/Kg each time, normal 39.0 ± 2.4, control 992.3 ± 121.2
[5] = Table 2, 50 mg/Kg each time, normal 48.9 ± 4.7, control 125.7 ± 4.9
[6] = Table 2, 50 mg/Kg each time, normal 129.9 ± 10.1, control 1081.8 ± 90.3
[7] = Table 1, 50 mg/Kg each time, normal 32.3 ± 3.3, control 94.2 ± 6.9
[8] = Table 1, 50 mg/Kg each time, normal 33.1 ± 2.3, control 509 ± 94
[9] = Table 1, 50 mg/Kg each time, normal 127.0 ± 6.1, control 751 ± 130

Structure (SMILES)	death of rats [1]	GPT Value [2] [carmen unit]	Alkali Phosphatase Value [2] [KA unit]	GOT Value [2] [carmen unit]	GPT Value [3, 4] [carmen unit]	Alkali Phosphatase Value [3, 5] [KA unit]	GOT Value [3, 6] [carmen unit]	Alkali Phosphatase Value [3, 7] [KA unit]	GPT Value [3, 8] [carmen unit]	GOT Value [3, 9] [carmen unit]
CC(=CC(=O)N1CCOCC1)CCCC(C)CCCC(C)CCCC(C)C (stereo not shown) [compound I, 4-(3,7,11,15-tetramethyl-2-hexadecaenoyl)morpholine]	None of the rats died	154.9 ± 21.5	44.31 ± 3.1	284.9 ± 36.4	135.3 ± 46.4	35.4 ± 5.2	659.3 ± 72.5			
CC(C)CCCC(C)CCCC(C)CCCC(C)CC(=O)N1CCOCC1 (stereo not shown) [compound C, 4-(3,7,11,15-tetramethylhexadecanoyl)morpholine]	None of the rats died	122.0 ± 16.1	46.7 ± 4.0	231.1 ± 26.4				23.5 ± 1.8	40 ± 13	352 ± 34
CC(C)=CCCC(C)=CCCC(C)=CCCC(C)=CC(=O)N1CCOCC1 [compound M, 4-(3,7,11,15-tetramethyl-2,6,10,14-hexadecatetraenoyl)morpholine]	None of the rats died	58.9 ± 7.3	59.4 ± 4.9	178.4 ± 10.3						
CC(C)=CCC/C(C)=C/CC/C(C)=C/CCC(C)CC(=O)N1CCOCC1 (stereo not shown) [compound D, 4-[(E,E)-3,7,11,15-tetramethyl-6,10,14-hexadecatrienoyl]morpholine]	None of the rats died	58.8 ± 5.5	53.1 ± 5.6	84.8 ± 8.9				28.5 ± 2.0	94 ± 39	430 ± 58
CC(C)=CCCC(C)=CCCC(C)=CCCC(C)=CC(N)=O [compound J, 3,7,11,15-tetramethyl-2,6,10,14-hexadecatetraenamide]					314.5 ± 65.9	49.9 ± 3.0	617.0 ± 50.5			
CC(C)=CCCC(C)=CCCC(C)=CCCC(C)=CC(=O)N(C)C [compound K, N,N-dimethyl-3,7,11,15-tetramethyl-2,6,10,14-hexadecatetraenamide]					193.8 ± 38.1	45.2 ± 1.8	586.0 ± 56.5			
CC(C)=CCC/C(C)=C/CC/C(C)=C/CCC(C)CC(=O)N(C)C (stereo not shown) [compound F, (E,E)-N,N-dimethyl-3,7,11,15-tetramethyl-6,10,14-hexadecatrienamide]								28.0 ± 2.4	90 ± 44	400 ± 75
CC(C)=CCC/C(C)=C/CC/C(C)=C/CCC(C)CC(=O)N1CCN(CCO)CC1 (stereo not shown) [compound G, 1-[(E,E)-3,7,11,15-tetramethyl-6,10,14-hexadecatrienoyl]-4-(2-hydroxyethyl)piperazine]								29.6 ± 2.3	84 ± 17	414 ± 49
CC(C)CCCC(C)CCCC(C)CC(=O)N1CCOCC1 (stereo not shown) [compound A, 4-(3,7,11-trimethyldodecanoyl)morpholine]		62.1 ± 10.7	64.1 ± 4.6	193.0 ± 18.5				31.9 ± 1.8	46.8 ± 11	257.4 ± 31
CC(C)=CCC/C(C)=C/CCC(C)CC(=O)N1CCOCC1 (stereo not shown) [compound B, 4-[(E)-3,7,11-trimethyl-6,10-dodecadienoyl]morpholine]		67.4 ± 7.3	62.9 ± 4.9	233.3 ± 22.2				40.2 ± 2.4	50.4 ± 16	316 ± 27
CC(C)=CCCC(C)=CCCC(C)=CCCC(C)=CC(=O)N1CCN(CCO)CC1 [compound L, 1-(3,7,11,15-tetramethyl-2,6,10,14-hexadecatetraenoyl)-4-(2-hydroxyethyl)piperazine]					138.1 ± 16.9	42.8 ± 1.8	451.7 ± 37.9			
CC(=CC(=O)N1CCOCC1)CCCC(C)CCCC(C)C (stereo not shown) [compound H, 4-(3,7,11-trimethyl-2-dodecaenoyl)morpholine]					511.3 ± 173.7	49.0 ± 1.9	732.1 ± 147.3			
CC(C)=CCC/C(C)=C/CC/C(C)=C/CCC(C)CC(N)=O (stereo not shown) [compound E, (E,E)-3,7,11,15-tetramethyl-6,10,14-hexadecatrienamide]								32.1 ± 2.6	64 ± 15	425 ± 24
